Patent US20200289514A1, “Novel Pyrazolo Pyrimidine Derivatives” (Novartis AG, priority 2015, published 2020)
Values after ≈ are worked out from the molar mass of the structure shown. Like-named read-outs stand apart in the source and are kept apart here.

What was measured:
[1] = Solubility in aqueous and biorelevant media; assay type: physicochemical; settings: read-out: Solubility (mg/mL) [pH]
Human IL2 promoter = Human IL2 promoter reporter gene assay (RGA) in Jurkat cells; assay type: cell-based; settings: Jurkat clone K22 290_H23, anti-CD28 mAb + PMA, 5.5 h
Procedure: Human IL2 Promoter Reporter Gene Assay (RGA) in Jurkat Cells
The transfected Jurkat clone K22 290_H23 was propagated in RPMI 1640 supplemented with 10% heat inactivated fetal calf serum, 50 μM 2-mercaptoethanol and 1 mg/ml Geneticin. The cell concentration should not exceed 1×10e6/ml during culturing. The cells should not exceed passage 30. Prior to the assay the cells were washed and prepared to the concentration of 2×10e6 cells/ml.
Compound dilutions were made as 2×-concentrated solutions then diluted ½ by addition to cells. Two hundred and fifty μl of compound dilution and 250 μl of cells were mixed together in wells of a 96-deep well plate. Cells/compounds premix were incubated 30 min at 37° C. and 5% CO2 directly in the deep well plate.
After pre-incubation of cells with compounds, cells were stimulated with anti-CD28 mAb (clone 15E8) at 3 μg/ml+PMA at 1 μg/ml. Both co-stimulants were diluted in culture medium at a 10×-concentrated solution. 10 μl of co-stimulants were pipetted into the white 96-well plates and 100 μl of cell/compound mix was immediately added in duplicates. The cells were stimulated for 5.5 h at 37° C. and 5% CO2.
After cell stimulation, 50 μl of BriteLitePlus reagent (Perkin Elmer) was added to each well and the bioluminescence was measured with a Wallac EnVision reader (Perkin Elmer).

[2] = biological target: T1, C-domain of MALT1 (amino acids 329-824) (Homo sapiens, UniProt Q9UDY8); assay: MALT1 Biochemical Assay - Version 1 (fluorescence lifetime)
T1 sequence (Q9UDY8 329-824): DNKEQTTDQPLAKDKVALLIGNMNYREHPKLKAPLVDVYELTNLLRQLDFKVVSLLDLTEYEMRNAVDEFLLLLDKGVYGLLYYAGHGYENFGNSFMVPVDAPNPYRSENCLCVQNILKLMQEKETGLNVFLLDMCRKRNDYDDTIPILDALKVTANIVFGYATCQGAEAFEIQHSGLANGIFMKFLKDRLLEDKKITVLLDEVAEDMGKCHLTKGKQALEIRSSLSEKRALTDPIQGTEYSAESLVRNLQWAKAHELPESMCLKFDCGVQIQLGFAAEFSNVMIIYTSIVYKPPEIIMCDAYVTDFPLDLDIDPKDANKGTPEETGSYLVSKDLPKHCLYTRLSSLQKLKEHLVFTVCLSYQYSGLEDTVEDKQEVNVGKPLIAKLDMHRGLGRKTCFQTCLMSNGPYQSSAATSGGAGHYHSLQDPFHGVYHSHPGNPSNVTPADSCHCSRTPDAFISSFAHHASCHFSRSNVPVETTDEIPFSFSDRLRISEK
Procedure: The readout parameter is the increase of fluorescence lifetime over time, proportional to enzyme activity.
The assay employs a short peptide substrate labeled with the single fluorophore PT14 as a fluorescence lifetime probe sensitive to the cleavage state of the substrate (PT14: 6-(9-oxo-9H-acridin-10-yl)-hexanoate, AssayMetrics, UK). […] Test compounds were dissolved in 100% (v/v) DMSO or a mixture containing 90% (v/v) DMSO and 10% (v/v) H2O at a stock concentration of 100 mM. Serial dilutions of test compounds were prepared using either 100% (v/v) DMSO or a mixture containing 90% (v/v) DMSO and 10% (v/v) H2O.
where y is the %-inhibition at the inhibitor concentration, x. A1 is the lowest inhibition value, and A2 the maximum inhibition value. The exponent, p, is the Hill coefficient.

Compound | IC50 (Human IL2 promoter) | IC50 [2] | other results
CO[C@@H](C)c1c(NC(=O)Nc2cncc(C#N)c2)cnc2cc(C)nn12 [Example 1, (S)-1-(5-cyanopyridin-3-yl)-3-(7-(1-methoxyethyl)-2-methylpyrazolo [1,5-a]pyrimidin-6-yl)urea] | 0.133 µM | 0.092 µM | solubility ([1]; 19.12 mM Sodium Maleate Fasted state simulated intestinal fluid (FaSSIF) pH 6.5, [pH] 6.63): 0.018 mg/mL (≈ 51.2 µM); solubility ([1]; FaSSIF pH 6.5, [pH] 6.56): 0.022 mg/mL (≈ 62.6 µM); solubility ([1]; Fed state intestinal fluid FeSSIF pH 5.8, [pH] 5.85): 0.027 mg/mL (≈ 76.8 µM); solubility ([1]; Simulated Gastric Fluid (SGF) pH 2.0, [pH] 2.00): 0.024 mg/mL (≈ 68.3 µM); solubility ([1]; Water, [pH] 7.65): 0.019 mg/mL (≈ 54.1 µM); solubility ([1]; aqueous buffer, 100 mM Sodium Acetate pH 4.0, [pH] 4.04): 0.019 mg/mL (≈ 54.1 µM); solubility ([1]; simulated gastric fluid, HCl/KCl pH 1.0, [pH] 1.10): 0.049 mg/mL (≈ 139 µM)
CO[C@@H](C)c1c(NC(=O)Nc2cnc(-n3nccn3)c(Cl)c2)cnc2cc(Cl)nn12 [Example 5, (S)-1-(5-chloro-6-(2H-1,2,3-triazol-2-yl)pyridin-3-yl)-3-(2-chloro-7-(1-methoxyethyl)pyrazolo[1,5-a]pyrimidin-6-yl)urea] | 0.019 µM |  | solubility ([1]; Fasted state simulated intestinal fluid (FaSSIF), [pH] 6.59): 0.0044 mg/mL (≈ 9.82 µM); solubility ([1]; Fed state intestinal fluid (FeSSIF), [pH] 6.87): 0.0082 mg/mL (≈ 18.3 µM); solubility ([1]; Simulated Gastric Fluid (SGF), [pH] 2.55): 0.0168 mg/mL (≈ 37.5 µM); solubility ([1]; Water, [pH] 7.39): 0.005 mg/mL (≈ 11.2 µM); solubility ([1]; medium of pH 1.2 (composition not named), simulated gastric fluid, pH 1.2, [pH] 1.17): 0.0038 mg/mL (≈ 8.48 µM); solubility ([1]; medium of pH 3.0 (composition not named), aqueous buffer, pH 3.0, [pH] 3.14): 0.0052 mg/mL (≈ 11.6 µM); solubility ([1]; medium of pH 4.7 (composition not named), aqueous buffer, pH 4.7, [pH] 4.71): 0.0048 mg/mL (≈ 10.7 µM); solubility ([1]; medium of pH 7.4 (composition not named), aqueous buffer, pH 7.4, [pH] 7.34): 0.004 mg/mL (≈ 8.92 µM); solubility ([1]; medium of pH 9.0 (composition not named), aqueous buffer, pH 9.0, [pH] 8.09): 0.0055 mg/mL (≈ 12.3 µM)
COc1ncc(NC(=O)Nc2cnc3cc(Cl)nn3c2[C@H](C)O[C@H]2CCN(C(C)=O)C2)cc1C#N [Example 26, 1-(7-((S)-1-(((S)-1-acetylpyrrolidin-3-yl)oxy)ethyl)-2-chloropyrazolo[1,5-a]pyrimidin-6-yl)-3-(5-cyano-6-methoxypyridin-3-yl)urea] | 0.113 µM | 0.022 µM | 
CO[C@@H](C)c1c(NC(=O)Nc2cnc(-n3nccn3)c(C#N)c2)cnc2cc(C)nn12 [Example 27, (S)-1-(5-cyano-6-(2H-1,2,3-triazol-2-yl)pyridin-3-yl)-3-(7-(1-methoxyethyl)-2-methylpyrazolo[1,5-a]pyrimidin-6-yl)urea] | 0.035 µM | 0.008 µM | 
CO[C@@H](C)c1c(NC(=O)Nc2cc(Cl)nc(C(=O)N(C)C)c2)cnc2cc(Cl)nn12 [Example 28, (S)-6-chloro-4-(3-(2-chloro-7-(1-methoxyethyl)pyrazolo [1,5-a]pyrimidin-6-yl)ureido)-N, N-dimethylpicolinamide] | 0.045 µM | 0.013 µM | 
CO[C@@H](C)c1c(NC(=O)Nc2cncc(C(F)F)c2)cnc2cc(F)nn12 [Example 29, (S)-1-(5-(difluoro-methyl)pyridin-3-yl)-3-(2-fluoro-7-(1-methoxyethyl)-pyrazolo[1,5-a]pyrimidin-6-yl)urea] | 0.135 µM | 0.05 µM | 
CO[C@@H](C)c1c(NC(=O)Nc2cncc(C(F)(F)F)c2)cnc2cc(F)nn12 [Example 30, (S)-1-(2-fluoro-7-(1-methoxyethyl)pyrazolo [1,5-a]pyrimidin-6-yl)-3-(5-(trifluoro-methyl)pyridin-3-yl)urea] | 0.02 µM | 0.007 µM | 
CO[C@@H](C)c1c(NC(=O)Nc2cnc(C(=O)N(C)C)c(Cl)c2)cnc2cc(Cl)nn12 [Example 31, (S)-3-chloro-5-(3-(2-chloro-7-(1-methoxyethyl)pyrazolo [1,5-a]pyrimidin-6-yl)ureido)-N,N-dimethylpicolinamide] | 0.035 µM | 0.012 µM | 
CO[C@@H](C)c1c(NC(=O)Nc2cncc(Cl)c2)cnc2cc(F)nn12 [Example 32, (S)-1-(5-chloro-pyridin-3-yl)-3-(2-fluoro-7-(1-methoxyethyl)pyrazolo [1,5-a]pyrimidin-6-yl)urea] | 0.04 µM | 0.011 µM | 
CO[C@@H](C)c1c(NC(=O)Nc2cnc(C(=O)N3CCCC3)c(Cl)c2)cnc2cc(Cl)nn12 [Example 33, (S)-1-(5-chloro-6-(pyrrolidine-1-carbonyl)pyridin-3-yl)-3-(2-chloro-7-(1-methoxyethyl)pyrazolo [1,5-a]pyrimidin-6-yl)urea] | 0.044 µM | 0.011 µM | 
CNC(=O)c1ncc(NC(=O)Nc2cnc3cc(Cl)nn3c2[C@H](C)OC)cc1Cl [Example 34, (S)-3-chloro-5-(3-(2-chloro-7-(1-methoxyethyl)pyrazolo [1,5-a]pyrimidin-6-yl)ureido)-N-methylpicolinamide] | 0.028 µM | 0.007 µM | 
CO[C@@H](C)c1c(NC(=O)Nc2cncc(Cl)c2)cnc2cc(Cl)nn12 [Example 35, (S)-1-(2-chloro-7-(1-methoxyethyl)pyrazolo [1,5-a]pyrimidin-6-yl)-3-(5-chloropyridin-3-yl)urea] | 0.017 µM | 0.01 µM | 
COc1ncc(NC(=O)Nc2cnc3cc(Cl)nn3c2[C@@H](OC)[C@H](C)OC)cc1C#N [Example 36, 1-(2-chloro-7-((1R, 2S)-1,2-dimethoxypropyl)pyrazolo[1,5-a]pyrimidin-6-yl)-3-(5-cyano-6-methoxypyridin-3-yl)urea] | 0.035 µM | 0.003 µM | 
COCC1(c2c(NC(=O)Nc3ccnc(C#N)c3)cnc3cc(Cl)nn23)CC1 [Example 37, 1-(2-chloro-7-(1-(methoxymethyl)cyclopropyl)pyrazolo [1,5-a]pyrimidin-6-yl)-3-(2-cyanopyridin-4-yl)urea] | 0.057 µM | 0.025 µM | 
C[C@H](N)c1c(NC(=O)Nc2cnc(-n3nccn3)c(Cl)c2)cnc2cc(Cl)nn12 [Example 38, (S)-1-(7-(1-aminoethyl)-2-chloropyrazolo[1,5-a]pyrimidin-6-yl)-3-(5-chloro-6-(2H-1,2,3-triazol-2-yl)pyridin-3-yl)urea] | 0.086 µM | 0.024 µM | 
Cc1cc2ncc(NC(=O)Nc3cncc(C#N)c3)c([C@H](C)O)n2n1 [Example 39, (S)-1-(5-cyanopyridin-3-yl)-3-(7-(1-hydroxyethyl)-2-methylpyrazolo [1,5-a]pyrimidin-6-yl)urea] | 0.604 µM | 0.072 µM | 
C[C@H](O)c1c(NC(=O)Nc2ccnc(C(F)F)c2)cnc2cc(F)nn12 [Example 40, (S)-1-(2-(difluoromethyl)pyridin-4-yl)-3-(2-fluoro-7-(1-hydroxyethyl)pvrazolo[1,5-a]pyrimidin-6-yl)urea] | 0.1 µM | 0.011 µM | 
CO[C@@H](C)c1c(NC(=O)Nc2cc(Cl)cnc2OC[C@H](C)N)cnc2cc(Cl)nn12 [Example 41, 1-(2-((S)-2-aminopropoxy)-5-chloropyridin-3-yl)-3-(2-chloro-7-((S)-1-methoxyethyl)pvrazolo[1,5-a]pyrimidin-6-yl)urea] | 0.05 µM | 0.021 µM | 
CO[C@@H](C)c1c(NC(=O)Nc2cc[n+]([O-])c(C(F)F)c2)cnc2cc(F)nn12 [Example 42, (S)-2-(difluoromethyl)-4-(3-(2-fluoro-7-(1-methoxyethyl)pyrazolo[1,5-a]pyrimidin-6-yl)ureido)pyridine 1-oxide] | 0.729 µM | 0.096 µM | 
